# Reference: patent US20240115667A1 (priority 2020, published 2024)
# pEC50: −log10 of the molar value. Read-outs that look alike come from different tables or passages of the source.
# What was measured:
# SARS-CoV-2 [1] = tested on: SARS-CoV-2
# SARS-CoV-2 [2] = type: cell-based
# SARS-CoV-2 [3] = experiment: microbe, parasite or virus in culture; settings: Severe acute respiratory syndrome coronavirus 2, Vero C1008, read-out: EC50, inhibition of SARS-CoV-2 induced cytotoxicity, diphenhydramine with 400 μg/ml of lactoferrin
# SARS-CoV-2 [4] = settings: for EC50, inhibition of SARS-CoV-2 induced cytotoxicity: Vero E6, MOI 0.2, LDH release
# SARS-CoV-2 [5] = type: cell-based; settings: diphenhydramine 40 μg/ml, lactoferrin 400 μg/ml; MOI 0.01; 48 h supernatant
smiles,measurement,setting,value
CN(C)CCOC(c1ccccc1)c1ccccc1 [Diphenhydramine],Inhibition of SARS-CoV-2 infection in vitro,SARS-CoV-2 [1],inhibited SARS-CoV-2 infection when administered alone
same,Reduction of the diphenhydramine EC50 by presence of LFN,SARS-CoV-2 [1],3 times
same,Decrease of SARS-CoV-2 induced cytotoxicity,SARS-CoV-2 [1]; 5 μg/mL DPH alone,unable to decrease SARS-CoV-2 induced cytotoxicity
same,Reduction in N-protein RNA,SARS-CoV-2 [2],32.2%
same,pEC50,"SARS-CoV-2 [3]; Vero E6, MOI 0.2",3.73
same,EC50,"SARS-CoV-2 [3]; Vero E6, MOI 0.2, LDH release",54.2 µg/mL
same,Decrease of diphenhydramine EC50,SARS-CoV-2 [4]; co-administration of 400 μg/ml of lactoferrin,55.5%
same,"EC50, inhibition of SARS-CoV-2 induced cytotoxicity",SARS-CoV-2 [4]; diphenhydramine alone,122 µg/mL
same,"EC50, inhibition of SARS-CoV-2 induced cytotoxicity",SARS-CoV-2 [4]; diphenhydramine with 400 μg/ml of lactoferrin,54.25 µg/mL
same,Reduction of infectious SARS-CoV-2 particle release compared to untreated H23-hACE2 cells,SARS-CoV-2 [5],−1 log
